The results in this text go back to ChEMBL document CHEMBL4152229, “Synthesis and biological evaluation of 2,6-disubstituted-9H-purine, 2,4-disubstitued-thieno[3,2-d]pyrimidine and -7H-pyrrolo[2,3-d]pyrimidine analogues as novel CHK1 inhibitors” (Eur J Med Chem, 2018).

Experiment [1] has as its system HT-29. The experiment can be described thus: cells. Conditions: Homo sapiens, HT-29, 72 h.
Description: Antiproliferative activity against human HT-29 cells after 72 hrs by MTS assay
Experiment [2] has as its target T1, Serine/threonine-protein kinase Chk1 (Homo sapiens) (UniProt O14757).
T1 sequence (whole entry): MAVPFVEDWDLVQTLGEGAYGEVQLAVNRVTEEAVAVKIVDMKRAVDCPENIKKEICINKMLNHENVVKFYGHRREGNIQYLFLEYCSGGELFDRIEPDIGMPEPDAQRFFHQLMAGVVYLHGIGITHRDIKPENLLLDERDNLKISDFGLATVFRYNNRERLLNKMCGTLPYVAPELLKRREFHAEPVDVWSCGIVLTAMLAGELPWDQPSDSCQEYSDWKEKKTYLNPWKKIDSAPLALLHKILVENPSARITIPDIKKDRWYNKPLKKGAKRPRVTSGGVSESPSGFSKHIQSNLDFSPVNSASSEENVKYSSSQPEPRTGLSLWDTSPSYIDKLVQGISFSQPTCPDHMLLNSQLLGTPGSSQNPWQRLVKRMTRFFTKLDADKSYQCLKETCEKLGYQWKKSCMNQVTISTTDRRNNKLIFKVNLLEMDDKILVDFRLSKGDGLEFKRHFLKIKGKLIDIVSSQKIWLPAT
Put plainly: Inhibition of CHK1 (unknown origin) at 10 uM using Cdc25 peptide as substrate preincubated for 30 mins followed by substrate addition and measured after 60 mins by ADP-Glo kinase assay. For orientation: ADP-Glo turns the ADP formed in a reaction into a luminescent signal.

The next experiment deals with HEK293. The experiment can be described thus: Antiproliferative activity against human HEK293 cells after 72 hrs by MTS assay. In kind it is functional. To be noted: HEK293, 72 h. (In general: Formazan colour is commonly taken as a measure of viable cells.)
Experiment [3] addresses T2, Serine/threonine-protein kinase Chk1 (Homo sapiens, UniProt O14757).
T2 sequence (O14757 whole entry): T1 sequence (whole entry)
Put plainly: Inhibition of CHK1 (unknown origin) using Cdc25 peptide as substrate preincubated for 30 mins followed by substrate addition and measured after 60 mins by ADP-Glo kinase assay.

In experiment [4] the test system is HT-29. Put plainly: Cell cycle arrest in human HT-29 cells assessed as accumulation at S phase at 25 nM after 48 hrs by propidium iodide/RNase staining-based flow cytometric analysis (reference value: 30.9%). In kind it is functional. (A flow cytometer gives signals particle by particle.)
The subject of experiment [5] is HT-29. The experiment can be described thus: Cell cycle arrest in human HT-29 cells assessed as accumulation at G2 phase at 25 nM after 48 hrs by propidium iodide/RNase staining-based flow cytometric analysis (reference value: 7.0%). In kind it is functional.
Experiment [6] concerns HT-29. The experiment can be described thus: Cell cycle arrest in human HT-29 cells assessed as accumulation at G1 phase at 25 nM after 48 hrs by propidium iodide/RNase staining-based flow cytometric analysis (reference value: 62.1%). In kind it is functional.

As for `COc1ccccc1Nc1nc(N2CCOCC2)c2nc[nH]c2n1`, the GI50 with HT-29 [1] and in the experiment with HEK293 was more than 100 µM in each case. In experiment [2], this compound showed an inhibition of 3.8%.
For `COc1cccc(Nc2nc(N3CCOCC3)c3nc[nH]c3n2)c1`, the GI50 with HT-29 [1] is 72.6 µM; in the experiment on HEK293, 38.7 µM. The IC50 in experiment [3] stood at 3.63 µM. The inhibition in experiment [2] came to 84.9%.
Consider `FC(F)(F)c1cccc(Nc2nc(N3CCOCC3)c3nc[nH]c3n2)c1`, for which the GI50 in the experiment on HT-29 [1] turned out to be 29.1 µM; with HEK293 it was 31.4 µM. In addition, the inhibition in experiment [2] is 61.3%.
For `O=C(Nc1cccc(Nc2nc(N3CCOCC3)c3nc[nH]c3n2)c1)C(F)(F)F` the same measures were 58 µM, 73.6 µM and 50%.
The corresponding values for `COc1cc(Nc2nc(N3CCOCC3)c3cc[nH]c3n2)cc(OC)c1OC` are 50.4 µM, 58.7 µM and 26.9%.
On to `c1ccc(Nc2nc(N3CCOCC3)c3nc[nH]c3n2)cc1`, for which the GI50 in the experiment with HT-29 [1] is more than 100 µM; in the experiment on HEK293 it was 60.2 µM. The IC50 in experiment [3] was found to be 2.57 µM. Besides, in experiment [2], the inhibition came to 82.4%.
In the case of `Fc1cccc(Nc2nc(N3CCOCC3)c3nc[nH]c3n2)c1`, the GI50 in the experiment on HT-29 [1] worked out at 60.8 µM; in the experiment on HEK293 it was 33.7 µM. 3.6 µM corresponded to half-maximal inhibition in experiment [3] (IC50). Besides, the inhibition in experiment [2] is 92%.
As to `c1ccc(Nc2nc(NC3CCOCC3)c3nc[nH]c3n2)cc1`, the GI50 came to 80.3 µM in the experiment on HT-29 [1] and 31.5 µM in the experiment with HEK293. The inhibition in experiment [2] worked out at 61.5%.
The corresponding values for `COc1ccc(Nc2nc(N3CCOCC3)c3cc[nH]c3n2)cc1` are 38.4 µM, 63.6 µM and 16.7%.
As to `COc1ccc(Nc2nc(N3CCOCC3)c3sccc3n2)cc1`, the GI50 with HT-29 [1] was 29.7 µM; with HEK293 it was more than 100 µM.
For `c1ccc2ncc(Nc3nc(N4CCOCC4)c4nc[nH]c4n3)cc2c1`, the GI50 in the experiment on HT-29 [1] turned out to be 25.1 µM; in the experiment on HEK293 it was 22.3 µM. Moreover, in experiment [2], the inhibition was 63.1%.
For `COc1cc(Nc2nc(N3CCOCC3)c3nc[nH]c3n2)cc(OC)c1OC` the same measures were more than 100 µM, more than 100 µM and 35.8%.
On to `Clc1cccc(Nc2nc(N3CCOCC3)c3nc[nH]c3n2)c1`, for which the GI50 with HT-29 [1] is 34.8 µM; in the experiment with HEK293, 38.4 µM. In experiment [3], this compound displayed an IC50 of 2.83 µM. Also, the inhibition in experiment [2] worked out at 77.3%.
Take `Fc1ccc(Nc2nc(NC3CCOCC3)c3nc[nH]c3n2)cc1`: the GI50 with HT-29 [1] was 86.9 µM; in the experiment with HEK293 it was more than 100 µM. Further, the inhibition in experiment [2] is 37.2%.
On to `Cc1cccc(Nc2nc(N3CCOCC3)c3nc[nH]c3n2)c1`, for which the results for the GI50 in the experiment on HT-29 [1] and with HEK293 were 67.6 µM and 40.5 µM, respectively. This compound came in with an IC50 in experiment [3] of 1.27 µM. The inhibition in experiment [2] worked out at 85.2%.
As to `c1ccc(Nc2nc(N3CCOCC3)c3sccc3n2)cc1`, the GI50 in the experiment with HT-29 [1] is 54.5 µM; in the experiment with HEK293, more than 100 µM.
For the compound `Nc1ccn([C@@H]2O[C@H](CO)[C@@H](O)C2(F)F)c(=O)n1` [GEMCITABINE], the Activity in the experiment on HT-29 [4] worked out at 10.5%; in the experiment on HT-29 [5] it was 85.2%; in the experiment with HT-29 [6], 4.3%.
As for `COc1cc(Nc2nc(N3CCOCC3)c3sccc3n2)cc(OC)c1OC`, the GI50 with HT-29 [1] is 31.6 µM; with HEK293, more than 100 µM.
With `c1cnc(Nc2nc(N3CCOCC3)c3nc[nH]c3n2)cn1`, the GI50 is more than 100 µM in the experiment on HT-29 [1] and 27.2 µM in the experiment on HEK293. In experiment [2], this compound gave an inhibition of 38.2%.
As for `NC(=O)c1ccc(Nc2nc(N3CCOCC3)c3nc[nH]c3n2)cn1`, the GI50 in the experiment with HT-29 [1] and with HEK293 was 72.2 µM in each case. The IC50 in experiment [3] came out at 9.87 µM. This compound also gave an inhibition in experiment [2] of 80.3%.
Regarding `N#Cc1cnc(Nc2cc(NC[C@H]3CNCCO3)c(C(F)(F)F)cn2)cn1` [SRA-737], the GI50 with HT-29 [1] stood at 9.22 µM; in the experiment with HEK293, 1.39 µM.
Take `COc1ccc(Nc2nc(N3CCOCC3)c3nc[nH]c3n2)cc1`: the GI50 in the experiment on HT-29 [1] is 74.5 µM; in the experiment on HEK293 it was more than 100 µM. In addition, the inhibition in experiment [2] turned out to be 51%.
For the compound `NC(=O)Nc1cc(-c2cccc(F)c2)sc1C(=O)N[C@H]1CCCNC1` [AZD-7762], the results for the GI50 with HT-29 [1] and in the experiment with HEK293 were 0.167 µM and 0.236 µM, respectively.
For `c1cncc(Nc2nc(N3CCOCC3)c3nc[nH]c3n2)c1`, the 50% growth inhibitory concentration (GI50) in the experiment on HT-29 [1] was more than 100 µM; in the experiment with HEK293, 33.7 µM. In experiment [3], this compound yielded an IC50 of 8.06 µM. In experiment [2], this compound returned an inhibition of 82.2%.
As for `c1ccc(Nc2nc(N3CCOCC3)c3cc[nH]c3n2)cc1`, the concentration for 50% growth inhibition (GI50) in the experiment on HT-29 [1] is 58.3 µM; in the experiment with HEK293 it was 64.7 µM. Also, the inhibition in experiment [2] is 44.5%.
The corresponding values for `FC(F)(F)Oc1cccc(Nc2nc(N3CCOCC3)c3nc[nH]c3n2)c1` are more than 100 µM, more than 100 µM and 31.6%.

One may read the GI50 as the concentration at which growth is held to half of that of the control. As a reminder, the inhibition is how much of the control response was suppressed. High values mean strong suppression, low ones little suppression. As usually defined, the IC50 is the point on the concentration scale where inhibition reaches its midpoint. High values mean weaker potency, low ones greater potency.
